# From ChEMBL document CHEMBL1146429, “Stellettamide B, a new indolizidine alkaloid from a sponge of the genus Stelletta” (1997)
# Calls of active or inactive are those of the source. No cut-off for these calls is given here.
# Assays:
# [1] = Induction of cleavage of mRNA at 50 ug/mL
# [2] = test system: Candida albicans; assay: Antimicrobial activity against Candida albicans at 25 ug/mL by paper-disk method; assay type: functional; conditions: read-out: IZ
# [3] = Induction of cleavage of rRNA at 50 ug/mL
Activity [1],Activity [3],SMILES,zone of inhibition at 25 µg/mL [2]
Active,Active,CC(C)=CCC[C@@H](C)/C=C/C=C(\C)C(=O)NC(=N)NCCCCNC(=N)N [STELLETTADINE A],9 mm
Active,Active,CC(C)=CCC[C@@H](C)/C=C/C=C(\C)C(=O)NC[C@@H]1CC[N+]2(C)CCCC[C@H]12 (stereo partly specified) [STELLETTAMIDE B],4 mm
